Values of other authors as cited in patent publication US11324771B2 (priority 2020, dated 2022).
Where two headings read alike, the source gives them in different places.

Columns and labels:
[1] = not given; remark: listed apart in the source

cobinamide dihydroxide dihydrogen phosphate (ester), mono (inner salt), 3′-ester with 5,6-dimethyl-1-α-D-ribofuranosyl-1H-benzimidazole [Hydroxocobalamin]
solubility in acetone (acetone): practically insoluble
solubility in benzene (benzene): practically insoluble
solubility in chloroform (chloroform): practically insoluble
solubility in dimethyl sulfoxide (dimethyl sulfoxide): freely soluble
solubility in diethyl ether / ether (ether): practically insoluble
solubility in ethyl acetate (ethyl acetate): practically insoluble
solubility in methanol (methanol): freely soluble
solubility in water (water): freely soluble
solubility in aqueous buffer ([1]; pH 1.2): highly soluble
solubility in aqueous buffer ([1]; pH 4.5): highly soluble
solubility in aqueous buffer ([1]; pH 6.8): < 400 µg/mL
solubility in aqueous buffer ([1]; pH 7.5): < 400 µg/mL
